Reference: paper PMC9490236, “Accurate de novo design of membrane-traversing macrocycles” (Cell, 2022)
Where a SMILES comes first, the peptide text is derived from it. [ ]: non-standard residue; d: D form. NMeF = CN[C@@H](Cc1ccccc1)C(=O)O; dNMeF = CN[C@H](Cc1ccccc1)C(=O)O; NMeL = CN[C@@H](CC(C)C)C(=O)O; dNMeL = CN[C@H](CC(C)C)C(=O)O; NMeM = CN[C@@H](CCSC)C(=O)O; NMeV = CN[C@H](C(=O)O)C(C)C; NMeA = CN[C@@H](C)C(=O)O; dNMeA = CN[C@H](C)C(=O)O

Legend:
[1] = PAMPA
in vitro = settings: PAMPA, PAMPA_Papp_Avg

SMILES | PAMPA_R1 [1] | PAMPA_R3 [1] | Papp (in vitro) [×10⁻⁶ cm/s]
CC[C@H](C)[C@@H]1NC(=O)[C@@H](CC(C)C)N(C)C(=O)[C@H](CC(C)C)N(C)C(=O)[C@H](C)NC(=O)[C@H]2CCCN2C(=O)[C@@H]2CCCN2C(=O)[C@@H]2CCCN2C(=O)[C@@H](C(C)C)NC1=O [Design D8.28, PRO DPRO ALA *LEU *DLEU ILE DVAL PRO] (cyclo(A[NMeL][dNMeL]I[dV]PP[dP])) | 1.45E-06 | 7.65E-07 | 1.14
CC(C)C[C@H]1NC(=O)[C@@H]2CCCN2C(=O)[C@@H](C(C)C)NC(=O)[C@@H](C)N(C)C(=O)[C@@H](C(C)C)NC(=O)[C@@H]2CCCN2C(=O)[C@@H](Cc2ccccc2)NC(=O)[C@H](CC(C)C)N(C)C(=O)[C@@H](C(C)C)NC1=O [Design D9.5, PRO DVAL *DALA DVAL PRO DLEU DVAL *LEU DPHE] (cyclo([NMeL][dF]P[dV][dNMeA][dV]P[dL][dV])) | 3.32E-06 | 4.42E-06 | 3.51
CC[C@H](C)[C@@H]1NC(=O)[C@H](Cc2ccccc2)N(C)C(=O)[C@H](CC(C)C)N(C)C(=O)[C@@H](C(C)C)NC(=O)[C@@H](C)NC(=O)[C@@H]2CCCN2C(=O)[C@@H](CC(C)C)NC(=O)[C@@H]2CCCN2C(=O)[C@H](C)NC1=O [Design D9.6, PRO DALA DVAL *LEU *PHE ILE ALA PRO DLEU] | 1.38E-06 | 1.96E-06 | 1.63
CC[C@@H](C)[C@H]1NC(=O)[C@H](CC(C)C)N(C)C(=O)[C@H]2CCCN2C(=O)[C@@H](Cc2ccccc2)N(C)C(=O)[C@@H](Cc2ccccc2)N(C)C(=O)[C@H](CC(C)C)N(C)C(=O)[C@@H](C(C)C)NC(=O)[C@@H]2CCCN2C(=O)[C@H](C)NC1=O [Design D9.9, PRO DVAL *LEU *DPHE *DPHE DPRO *LEU DILE ALA] (cyclo(AP[dV][NMeL][dNMeF][dNMeF][dP][NMeL][dI])) | 7.88E-07 | 2.31E-07 | 0.575
CC[C@H](C)[C@@H]1NC(=O)[C@@H](CC(C)C)N(C)C(=O)[C@H](CC(C)C)N(C)C(=O)[C@@H](C)N(C)C(=O)[C@@H](Cc2ccccc2)NC(=O)[C@H](C(C)C)NC(=O)[C@@H](C)NC(=O)[C@@H]2CCCN2C(=O)[C@H]2CCCN2C1=O [Design D9.10, VAL DPHE *DALA *LEU *DLEU ILE DPRO PRO DALA] (cyclo([dA]V[dF][dNMeA][NMeL][dNMeL]I[dP]P)) | 1.20E-06 | 6.09E-07 | 0.826
CC[C@H](C)[C@@H]1NC(=O)[C@@H](C)N(C)C(=O)[C@@H](C)N(C)C(=O)[C@@H]2CCCN2C(=O)[C@H](CC(C)C)NC(=O)[C@H](CC(C)C)NC(=O)[C@@H](CC(C)C)NC(=O)[C@@H]2CCCN2C(=O)[C@H]2CCCN2C1=O [Design D9.11, PRO DLEU LEU LEU PRO *DALA *DALA ILE DPRO] (cyclo([dL]LLP[dNMeA][dNMeA]I[dP]P)) | 2.61E-07 | 2.10E-07 | 0.223
CC[C@@H](C)[C@H]1NC(=O)[C@H]2CCCN2C(=O)[C@H]([C@@H](C)CC)NC(=O)[C@H](CC(C)C)N(C)C(=O)[C@H]2CCCN2C(=O)[C@@H]2CCCN2C(=O)[C@H](Cc2ccccc2)N(C)C(=O)[C@H](Cc2ccccc2)NC(=O)[C@H]([C@@H](C)CC)NC1=O [Design D9.13, DPRO DILE ILE PHE *PHE PRO DPRO *LEU ILE] (cyclo(F[NMeF]P[dP][NMeL]I[dP][dI]I)) | 3.63E-06 | 3.09E-06 | 3.37
CC[C@H](C)[C@@H]1NC(=O)[C@@H](CC(C)C)NC(=O)[C@@H]2CCCN2C(=O)[C@@H]2CCCN2C(=O)[C@@H](CC(C)C)NC(=O)[C@@H]2CCCN2C(=O)[C@H]2CCCN2C(=O)[C@@H](C(C)C)NC(=O)[C@@H](C)N(C)C1=O [Design D9.14, PRO DLEU ILE *DALA DVAL DPRO PRO DLEU PRO] (cyclo([dL]PP[dL]I[dNMeA][dV][dP]P)) | 6.02E-07 | 5.63E-07 | 0.584
CC[C@H](C)[C@@H]1NC(=O)[C@@H](C)NC(=O)[C@@H]2CCCN2C(=O)[C@H]2CCCN2C(=O)[C@@H]2CCCN2C(=O)[C@@H](C)NC(=O)[C@@H](Cc2ccccc2)NC(=O)[C@@H](CC(C)C)N(C)C(=O)[C@@H](CC(C)C)N(C)C1=O [Design D9.15, PRO DPRO PRO DALA ILE *DLEU *DLEU DPHE DALA] (cyclo([dA]I[dNMeL][dNMeL][dF][dA]P[dP]P)) | 9.95E-07 | 6.20E-07 | 0.85
CC(C)C[C@@H]1C(=O)N[C@H](C(C)C)C(=O)N(C)[C@@H](C(C)C)C(=O)N2CCC[C@H]2C(=O)N2CCC[C@@H]2C(=O)N[C@@H](C)C(=O)N(C)[C@@H](Cc2ccccc2)C(=O)N(C)[C@H](CC(C)C)C(=O)N[C@H](C)C(=O)N1C [Design D9.17, DPRO ALA *PHE *DLEU DALA *DLEU DVAL *VAL PRO] (cyclo(A[NMeF][dNMeL][dA][dNMeL][dV][NMeV]P[dP])) | 2.83E-06 | 4.13E-07 | 1.74
CC(C)C[C@@H]1C(=O)N(C)[C@H](CC(C)C)C(=O)N2CCC[C@H]2C(=O)N[C@H](CC(C)C)C(=O)N2CCC[C@@H]2C(=O)N2CCC[C@@H]2C(=O)N(C)[C@H](CC(C)C)C(=O)N[C@H](Cc2ccccc2)C(=O)N[C@@H](C)C(=O)N1C [Design D9.18, ALA *DLEU *DLEU PRO DLEU DPRO DPRO *DLEU DPHE] (cyclo(A[dNMeL][dNMeL]P[dL][dP][dP][dNMeL][dF])) | 1.88E-06 | 1.97E-06 | 1.76
CC(C)C[C@@H]1NC(=O)[C@@H](CC(C)C)NC(=O)[C@@H](CC(C)C)N(C)C(=O)[C@@H](CC(C)C)N(C)C(=O)[C@H](C(C)C)NC(=O)[C@@H](C)N(C)C(=O)[C@@H]2CCCN2C(=O)[C@@H]2CCCN2C(=O)[C@@H](C)N(C)C1=O [Design D9.19, PRO *DALA VAL *DLEU *DLEU DLEU LEU *DALA PRO] (cyclo(L[dNMeA]PP[dNMeA]V[dNMeL][dNMeL][dL])) | 1.47E-06 | 1.16E-06 | 1.28
CC(C)C[C@@H]1NC(=O)[C@@H]2CCCN2C(=O)[C@H]2CCCN2C(=O)[C@@H](C)N(C)C(=O)[C@@H](CC(C)C)N(C)C(=O)[C@H](C(C)C)NC(=O)[C@@H](C)N(C)C(=O)[C@H]2CCCN2C(=O)[C@@H]2CCCN2C1=O [Design D9.22, DPRO *DALA VAL *DLEU *DALA DPRO PRO LEU PRO] (cyclo(LP[dP][dNMeA]V[dNMeL][dNMeA][dP]P)) | 1.87E-07 | 1.82E-07 | 0.189
CC[C@@H](C)[C@H]1NC(=O)[C@@H](CC(C)C)NC(=O)[C@@H]2CCCN2C(=O)[C@H]2CCCN2C(=O)[C@@H](C(C)C)NC(=O)[C@H](C)NC(=O)[C@@H]2CCCN2C(=O)[C@@H]([C@H](C)CC)NC(=O)[C@@H](C)N(C)C1=O [Design D9.23, DILE *DALA DILE PRO ALA DVAL DPRO PRO DLEU] (cyclo([dL][dI][dNMeA][dI]PA[dV][dP]P)) | 1.37E-07 | 1.50E-07 | 0.141
CSCC[C@H]1C(=O)N(C)[C@H](C)C(=O)N[C@H](CC(C)C)C(=O)N2CCC[C@@H]2C(=O)N2CCC[C@H]2C(=O)N[C@@H](CC(C)C)C(=O)N2CCC[C@H]2C(=O)N2CCC[C@@H]2C(=O)N[C@H](C(C)C)C(=O)N1C [Design D9.24, DPRO DVAL *MET *DALA DLEU DPRO PRO LEU PRO] (cyclo(LP[dP][dV][NMeM][dNMeA][dL][dP]P)) | 7.85E-08 | 8.51E-08 | 0.0869
CC(C)C[C@@H]1C(=O)N[C@H](Cc2ccccc2)C(=O)N2CCC[C@@H]2C(=O)N2CCC[C@@H]2C(=O)N2CCC[C@H]2C(=O)N[C@H](C(C)C)C(=O)N(C)[C@@H](C)C(=O)N(C)[C@@H](C)C(=O)N(C)[C@H](CC(C)C)C(=O)N1C [Design D9.25, DVAL *ALA *ALA *DLEU *DLEU DPHE DPRO DPRO PRO] (cyclo([dV][NMeA][NMeA][dNMeL][dNMeL][dF][dP][dP]P)) | 2.32E-06 | 1.52E-06 | 2.19
CC[C@@H](C)[C@H]1NC(=O)[C@H]2CCCN2C(=O)[C@@H](C)NC(=O)[C@@H](CC(C)C)N(C)C(=O)[C@H]([C@@H](C)CC)NC(=O)[C@@H](C(C)C)NC(=O)[C@@H](CC(C)C)N(C)C(=O)[C@@H]2CCCN2C(=O)[C@@H]2CCCN2C1=O [Design D9.26, DPRO DILE PRO PRO *DLEU DVAL ILE *DLEU DALA] (cyclo(I[dNMeL][dA][dP][dI]PP[dNMeL][dV])) | 2.58E-06 | 2.23E-06 | 2.32
CC(C)C[C@@H]1NC(=O)[C@@H](C)N(C)C(=O)[C@@H](CC(C)C)N(C)C(=O)[C@@H]2CCCN2C(=O)[C@H]2CCCN2C(=O)[C@@H](C)NC(=O)[C@@H]2CCCN2C(=O)[C@H]2CCCN2C(=O)[C@@H](CC(C)C)NC1=O [Design D9.27, DLEU DPRO PRO DALA DPRO PRO *DLEU *DALA LEU] (cyclo([dA][dP]P[dNMeL][dNMeA]L[dL][dP]P)) | 3.26E-08 | 3.49E-08 | 0.0334
CC(C)C[C@@H]1C(=O)N[C@H](C)C(=O)N[C@@H](C(C)C)C(=O)N2CCC[C@@H]2C(=O)N[C@H](C(C)C)C(=O)N2CCC[C@@H]2C(=O)N2CCC[C@H]2C(=O)N[C@H](C)C(=O)N(C)[C@H](CC(C)C)C(=O)N1C [Design D9.29, DVAL DPRO PRO DALA *DLEU *DLEU DALA VAL DPRO] (cyclo([dA][dNMeL][dNMeL][dA]V[dP][dV][dP]P)) | 1.96E-06 | 1.19E-06 | 1.51
CC(C)C[C@@H]1NC(=O)[C@H](Cc2ccccc2)N(C)C(=O)[C@H]2CCCN2C(=O)[C@@H](CC(C)C)NC(=O)[C@@H](CC(C)C)NC(=O)[C@H](C)NC(=O)[C@H]2CCCN2C(=O)[C@@H]2CCCN2C(=O)[C@@H](C(C)C)NC1=O [Design D9.32, DPRO ALA DLEU DLEU DPRO *PHE LEU DVAL PRO] (cyclo(A[dL][dL][dP][NMeF]L[dV]P[dP])) | 2.62E-07 | 2.67E-07 | 0.24
